Experimental data: patent KR20050073110A, “간 x 수용체의 항진제” (주식회사 엘지생명과학, priority 2004, dated 2005)

Legend:
LXRα (pGAL-hLXRα-LBD) = biological target: T1, LXRα (pGAL-hLXRα-LBD) (Homo sapiens, UniProt Q13133); assay: Transient transfection assay (luciferase reporter) in HEK293 / NIH3T3 cells; format: cell-based; settings: increasing amounts of compound, without RXRα expression plasmid (Fig. 1)
T1 construct: 수용체 발현 벡터(pGAL-hLXRα-LBD); expressed in transfected cells; host or cells: HEK293 or NIH3T3 cells
T1 sequence (Q13133 209-447 limits assumed): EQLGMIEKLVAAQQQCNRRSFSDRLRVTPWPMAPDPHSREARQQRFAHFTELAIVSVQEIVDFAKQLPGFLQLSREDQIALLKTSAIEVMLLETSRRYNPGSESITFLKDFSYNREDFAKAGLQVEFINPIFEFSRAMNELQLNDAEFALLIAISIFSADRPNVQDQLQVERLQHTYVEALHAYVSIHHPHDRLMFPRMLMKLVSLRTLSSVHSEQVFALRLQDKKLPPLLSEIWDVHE

[1] = biological target: T2, LXRα ligand-binding domain [LXRα 리간드-결합 도메인] (GST-LXRα-LBD) (Homo sapiens, UniProt Q13133); assay: Fluorescence polarization assay (rhodamine-labelled LXXLL peptide recruitment to GST-LXRα-LBD); format: biochemical; settings: 10 nM rhodamine-labelled peptide, 200 nM GST-LXRα-LBD, overnight (Fig. 2)
T2 construct: LXRα 리간드-결합 도메인을 글루타치온 S-트랜스퍼라제(GST)의 C-말단에 융합시키고; made in house; host or cells: E. coli
T2 sequence (Q13133 209-447 limits assumed): T1 sequence (Q13133 209-447 limits assumed)

CYP7A = CYP7A assay in liver of orally dosed mice; format: in vivo, C57BL/6J mouse; settings: C57BL/6J mice (n=6), single oral administration, liver taken after 8 h; dose not given
[2] = Plasma lipid change experiment in mice; format: in vivo, C57BL/6J mouse; settings: 14 days, C57BL/6J mice (n=6), blood 6 h after last dose

luciferase activity (LXRα-mediated transcription) (LXRα (pGAL-hLXRα-LBD)) | Structure (SMILES) | fluorescence polarization activity (coactivator peptide recruitment) [1] | increase in CYP7A activity in liver (CYP7A) [%] | increase in plasma HDL cholesterol ([2]; 30 mg/kg oral) [%] | increase in plasma HDL cholesterol ([2]; 100 mg/kg oral) [%]
용량 의존적으로 루시퍼라제 활성이 증가하였다 | Cc1c(/C=C(\C#N)S(=O)(=O)c2ccccc2)cc(C(C)C)n1-c1ccccc1C(F)(F)F [#44, (E)-2-페닐설포닐-3-[1-(2-트리플루오로메틸페닐)-2-메틸-5-이소프로필피롤-3-일]아크릴로니트릴] |  |  |  | 
용량 의존적으로 루시퍼라제 활성이 증가하였다 | COC(=O)c1cccc(S(=O)(=O)/C(C#N)=C/c2cc(C(C)C)n(-c3ccccc3C(F)(F)F)c2C)c1 [#182, (E)-2-(3-메톡시카보닐페닐)설포닐-3-[1-(2-트리플루오로메틸페닐)-2-메틸-5-이소프로필피롤-3-일]아크릴로니트릴] |  |  |  | 
 | CC(C)c1cc(/C=C(\C#N)S(=O)(=O)c2ccccc2)cn1-c1ccccc1C(F)(F)F [#189, (E)-2-페닐설포닐-3-[1-(2-트리플루오로메틸페닐)-5-이소프로필피롤-3-일]아크릴로니트릴] |  | 91 | 18 | 41
용량 의존적으로 루시퍼라제 활성이 증가하였다 | O=S(=O)(c1ccccc1)N(CC(F)(F)F)c1ccc(C(O)(C(F)(F)F)C(F)(F)F)cc1 [T0901317, reference compound] | 가장 높은 활성을 나타내었고 |  |  | 

Structure (SMILES) | luciferase activity (LXRα-mediated transcription) (LXRα (pGAL-hLXRα-LBD)) | fluorescence polarization activity (coactivator peptide recruitment) [1] | increase in CYP7A activity in liver (CYP7A) [%] | increase in plasma HDL cholesterol ([2]; 30 mg/kg oral) [%] | increase in plasma HDL cholesterol ([2]; 100 mg/kg oral) [%]
CC(C)CC[C@@H](O)[C@@H](C)[C@H]1CC[C@H]2[C@@H]3CC=C4C[C@@H](O)CC[C@]4(C)[C@H]3CC[C@]12C [22(R)-하이드록시콜레스테롤, reference compound] | 용량 의존적으로 루시퍼라제 활성이 증가하였다 | 형광의 증가를 나타내었다 |  |  | 
